Converted amounts (≈) assume the structure as drawn. The source made the active and inactive calls. The rule behind the calls is not given here.

The test system of data set [1] is Pseudomonas aeruginosa. Put plainly: Antimicrobial activity against Pseudomonas aeruginosa ATCC9027 assessed as bacterial growth inhibition incubated for 24 hrs by Muller Hinton broth based dilution assay. In kind it is functional.
Data set [2] relates to Candida albicans. Briefly: Antimicrobial activity against Candida albicans ATCC10231 assessed as fungal growth inhibition incubated for 48 hrs in presence of 3220 ug/mL Na+ by Sabouraud Dextrose broth based dilution assay. In kind it is functional.
For data set [3], the system named is Staphylococcus aureus. Put plainly: Antimicrobial activity against Staphylococcus aureus ATCC29213 assessed as bacterial growth inhibition incubated for 24 hrs in presence of 100 ug/mL Ca2+ by Muller Hinton broth based dilution assay. The class given is functional.
Data set [4] has as its system Escherichia coli. Put plainly: Antimicrobial activity against Escherichia coli ATCC25922 assessed as bacterial growth inhibition incubated for 24 hrs in presence of 100 ug/mL Ca2+ by Muller Hinton broth based dilution assay. In kind it is functional.
Data set [5] relates to Candida albicans. Briefly: Antimicrobial activity against Candida albicans ATCC10231 assessed as fungal growth inhibition incubated for 48 hrs in presence of 100 ug/mL Ca2+ by Sabouraud Dextrose broth based dilution assay. The class given is functional.
The test system of data set [6] is Staphylococcus aureus. Put plainly: Antimicrobial activity against Staphylococcus aureus ATCC29213 assessed as bacterial growth inhibition incubated for 24 hrs in presence of 24.3 ug/mL Mg2+ by Muller Hinton broth based dilution assay. In kind it is functional.
The test system of a further data set is Acinetobacter baumannii. Briefly: Antimicrobial activity against Acinetobacter baumannii ATCC17978 assessed as bacterial growth inhibition incubated for 24 hrs in presence of 24.3 ug/mL Mg2+ by Muller Hinton broth based dilution assay. In kind it is functional.
For data set [7], the system named is Escherichia coli. Put plainly: Antimicrobial activity against Escherichia coli ATCC25922 assessed as log reduction in microbial load at 8 times of MIC measured at 0.5 hr by time-kill kinetics assay. The class given is functional.
Data set [8] has as its system Candida albicans. Briefly: Antimicrobial activity against Candida albicans ATCC10231 assessed as fungal killing at 4 times of MIC measured at 0.5 hr by time-kill kinetics assay. In kind it is functional, organism-based.
Data set [9] relates to Candida albicans. Put plainly: Antimicrobial activity against Candida albicans ATCC10231 assessed as fungal killing at 8 times of MIC measured at 0.5 hr by time-kill kinetics assay. The class given is functional, organism-based.
Data set [10] has as its system Escherichia coli. Put plainly: Antimicrobial activity against Escherichia coli ATCC25922 assessed as bacterial killing at 1 to 8 times of MIC measured upto 24 hrs by time-kill kinetics assay. The class given is functional, organism-based.
For data set [11], the system named is Staphylococcus aureus. Put plainly: Induction of drug resistance in Staphylococcus aureus ATCC29213 assessed as change in MIC at sub-inhibitory concentration incubated for 21 to 22 passages. In kind it is functional.
The subject of data set [12] is Cell membrane. Briefly: Disruption of membrane integrity in Staphylococcus aureus ATCC29213 assessed as increase in fluorescence intensity at 1 to 8 times of MIC measured for 1 hr by SYTOX green dye based fluorescence analysis.
Data set [13] relates to Cell membrane. Put plainly: Disruption of membrane integrity in Escherichia coli ATCC25922 assessed as red fluorescence at 8 times of MIC incubated for 2 hrs under dark condition by SYTO 9 and PI staining based laser confocal microscopy analysis.
Data set [14] relates to Cell membrane. Briefly: Induction of outer membrane permeabilization in Escherichia coli ATCC25922 assessed as increase in fluorescence intensity at 1 to 8 times of MIC measured for 1 hrs by NPN uptake assay.
Data set [15] has as its system Staphylococcus aureus. Put plainly: Antibiofilm activity against Staphylococcus aureus ATCC29213 assessed as inhibition of biofilm formation at 0.39 ug/mL incubated for 24 hrs by crystal violet staining based analysis relative to control. In kind it is functional.
Data set [16] has as its system Staphylococcus aureus. Put plainly: Disruption of preformed biofilm in Staphylococcus aureus ATCC29213 assessed as residual preformed biofilm at 6.25 ug/mL incubated for 24 hrs by crystal violet staining based analysis relative to control. The class given is functional. The settings on record: dose 6.25 µg/ml.
For data set [17], the system named is Staphylococcus aureus. Briefly: Disruption of preformed biofilm in Staphylococcus aureus ATCC29213 assessed as residual preformed biofilm at 12.5 ug/mL incubated for 24 hrs by crystal violet staining based analysis relative to control. In kind it is functional. To be noted: dose 12.5 µg/ml.
Data set [18] can be described thus: Cytotoxicity against mouse J774.A1 cells assessed as viable cells at 6.25 ug/mL incubated for 24 hrs by CCK-8 assay relative to control. In kind it is toxicity, cell-based. To be noted: at 6.25 µg/mL, read-out: Activity.
A short description of data set [19]: Cytotoxicity against mouse J774.A1 cells assessed as viable cells at 25 ug/mL incubated for 24 hrs by CCK-8 assay relative to control. In kind it is toxicity, cell-based. The settings on record: at 25 µg/mL, read-out: Activity.
A short description of data set [20]: Cytotoxicity against mouse corneal epithelial cells assessed as viable cells at 12.5 ug/mL incubated for 24 hrs by CCK-8 assay relative to control. The class given is toxicity, cell-based, Corneal epithelial cell. The settings on record: at 12.5 µg/mL, read-out: Activity.
Data set [21] can be described thus: Cytotoxicity against mouse corneal epithelial cells assessed as viable cells at 25 ug/mL incubated for 24 hrs by CCK-8 assay relative to control. The class given is toxicity, cell-based, Corneal epithelial cell. To be noted: at 25 µg/mL, read-out: Activity.
Data set [22] has as its system Pseudomonas aeruginosa. Briefly: In vivo antibacterial activity against Pseudomonas aeruginosa ATCC9027 infected in keratitis C57BL/6 mouse model assessed as log reduction in bacterial load at 0.5 % administered topically 4 times per day for 3 days. The class given is functional. To be noted: time 3 day.
The test system of data set [23] is Candida albicans. Put plainly: Antimicrobial activity against Candida albicans ATCC10231 assessed as fungal killing at 8 times of MIC measured at 1 hr by time-kill kinetics assay. In kind it is functional, organism-based.

`CCCCCCCCCN1CCCc2cc(OCCCCNC(=N)N)ccc21`: the MIC in the data set with Pseudomonas aeruginosa [1] came out at 6.25 µg/mL (≈ 16.1 µM); in the data set on Candida albicans [2], 1.56 µg/mL; with Staphylococcus aureus [3], 0.78 µg/mL; in the data set on Escherichia coli [4], 3.12 µg/mL; in the data set on Candida albicans [5] it was 1.56 µg/mL; in the data set with Staphylococcus aureus [6], 0.78 µg/mL. Moreover, in the data set with Acinetobacter baumannii, the MIC came to 3.12 µg/mL. The “log(activity)” value in the data set with Escherichia coli [7] is greater than 3; in the data set on Pseudomonas aeruginosa [22], 3.2. Also, the outcome in the data set on Candida albicans [8], in the data set on Candida albicans [9], in the data set on Cell membrane [13] and in the data set with Cell membrane [14] was Active. Further, the Activity entry with Escherichia coli [10] was “Dose-Dependent Effect”; in the data set with Cell membrane [12], “Dose-Dependent Effect”; with Staphylococcus aureus [16], 4.69%; with Staphylococcus aureus [17] it was 0.3%. The result with Staphylococcus aureus [11] was inactive. Besides, the inhibition at 0.39 µg/mL with Staphylococcus aureus [15] came out at 65.2%. Also, in data set [18], the viability at 24 h, 6.25 ug/mL worked out at 97.4%. The viability at 24 h, 25 ug/mL worked out at 72.6% in [19] and 57.7% in data set [21]. For the same compound, in data set [20], the viability at 24 h, 12.5 ug/mL is 78%.

In the case of `CC(C)=CCN1CCCc2cc(OCCCCCCCCNC(=N)N)ccc21`, the MIC is 6.25 µg/mL (≈ 16.2 µM) in the data set with Pseudomonas aeruginosa [1]; 0.78 µg/mL with Candida albicans [2]; 0.78 µg/mL in the data set with Staphylococcus aureus [3]; 3.12 µg/mL in the data set on Escherichia coli [4]; 1.56 µg/mL with Candida albicans [5]; 0.78 µg/mL in the data set on Staphylococcus aureus [6]. The MIC in the data set with Acinetobacter baumannii was 3.12 µg/mL. In addition, the “log(activity)” value with Escherichia coli [7] is greater than 3; in the data set on Pseudomonas aeruginosa [22] it was 3.4. For the same compound, the result in the data set with Candida albicans [23], with Cell membrane [13] and in the data set on Cell membrane [14] was Active. Further, the Activity result in the data set on Escherichia coli [10] was “Dose-Dependent Effect”; in the data set on Cell membrane [12], “Dose-Dependent Effect”; with Staphylococcus aureus [16], 10.5%; in the data set with Staphylococcus aureus [17], 7.12%. The outcome in the data set with Staphylococcus aureus [11] was inactive. For the same compound, the inhibition at 0.39 µg/mL in the data set on Staphylococcus aureus [15] turned out to be 50.2%. For the same compound, the viability at 24 h, 6.25 ug/mL in [18] was 96.3%. Moreover, the viability at 24 h, 25 ug/mL in data set [19] was 58.8%; in data set [21], 76.9%. Moreover, the viability at 24 h, 12.5 ug/mL in data set [20] was found to be 87.6%.

Values taken from ChEMBL document CHEMBL5352419, “Design, synthesis, and biological evaluation of tetrahydroquinoline amphiphiles as membrane-targeting antimicrobials against pathogenic bacteria and fungi” (Eur J Med Chem, 2022).
